{"source": "patent US20220378763A1", "about": "“COMPOUND FOR TREATMENT OF ACUTE INFLAMMATION IN THE MYOCARDIUM” (CALPROTECT AB, priority 2019, published 2022)", "key": {"[1]": {"target": "T1, S100A9 binding to TLR4/MD2 (Homo sapiens, UniProt P06702)", "T1 sequence (P06702 1-114)": "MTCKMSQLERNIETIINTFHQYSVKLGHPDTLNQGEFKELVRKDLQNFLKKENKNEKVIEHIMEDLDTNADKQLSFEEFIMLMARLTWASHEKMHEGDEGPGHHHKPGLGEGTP", "experiment": "Surface plasmon resonance (Biacore 3000): inhibition of S100A9 binding to immobilized TLR4", "conditions": "50 nM recombinant human S100A9 over immobilized TLR4; response at late dissociation phase", "text": "(a) The molecular structure of ABR-238901. (b-c) Surface plasmon resonance measurement of S100A9 binding to immobilized RAGE (b) and TLR4 (c) in the presence of increasing ABR-238901 concentrations. The magnitude of the response for each ABR-238901 concentration (BABR-238901), measured at the late dissociation phase (t 350s), was expressed as percentage of the response in the absence of competitor (BO), and plotted against the concentration of ABR-238901.\nInhibition of S100A9 binding to RAGE and TLR4/MD2 by ABR-238901 was tested by surface plasmon resonance in a Biacore 3000 system (GE Healthcare, Uppsala, Sweden). Briefly, 50 nM of recombinant human S100A9 was injected over immobilized RAGE and TLR4 (2 min at 30 μL/min) in the presence of increasing concentrations of ABR-238901, ranging from 0.0488 to 100 μM. The magnitude of the responses measured at the late dissociation phase (t 350 s) in the presence of ABR-238901 (BABR-238901) were expressed as percentage of response in the absence of competitor (Bo), and plotted against the concentration of ABR-238901 (FIG. 7b-c). The curves were fit to a sigmoidal dose-response model with variable slope in Prism GraphPad for calculation of IC50."}, "[2]": {"test_system": "C57BL/6 mice with permanent coronary artery ligation", "experiment": "MI by permanent coronary artery ligation, long-term (21 days) treatment: echocardiography and scar size", "format": "in vivo, mouse", "conditions": "treatment for 21 days", "procedure": "(§1) Ultrasound measurements were performed at day −1 (baseline), 7, and 21 to assess cardiac function using a Vevo 770 echocardiographic imaging system with a 707B probe (VisualSonics, Toronto, Canada). In selected experiments, additional assessment was performed on days 3 and 14. The mice were anesthetized using 1-3% isoflurane and hair was carefully removed using depilatory cream. To maintain body temperature, the mice were placed in supine position on a heated surface (37° C.). Two-dimensional M-mode images were recorded in the parasternal short-axis view at the mid-papillary level. Five complete cardiac cycles were traced to calculate fractional shortening, ejection fraction, left ventricular systolic volume, and left ventricular diastolic volume by using the VisualSonics software.\nAt 21 days after MI, the hearts were perfused with ice cold PBS and excised under ketamine/xylazine anesthesia. Subsequently the hearts were fixed in 4% (w/v) paraformaldehyde and embedded in paraffin. The hearts were sectioned transversely from the apex to the level of the suture, and 6 μm thick sections were collected at 390 μm intervals. The sections were mounted on glass slides and stained with Van Gieson or Masson trichrome stain for quantitative analysis of scar size. Alarmin S100A8/A9 was detected using mouse anti-S100A8/A9 IgG1 antibody (Abcam, ab 130234, 1:100 dilution, O/N 4° C.). Goat anti-mouse IgG1 HRP-conjugated secondary antibody (Abcam, ab 97240, 1 h RT) was used and the staining was developed with ImmPACT™ DAB (Vector, SK-4105) chromogen as substrate. The slides were subsequently scanned using an Aperio digital pathology slide scanner (Leica Biosystems), and images were captured with the ImageScope software (Leica Biosystems). Left ventricle area and the infarcted area were measured on each section by using the BioPix iQ 2.5.0 software (Biopix AB). The size of the post-MI myocardial scar was expressed as percentage of the left ventricle volume below the coronary ligature.\nMI induction and other procedures were carried out as outlined in Example 2. For long-term experiments of up to 21 days, a daily dose of 30 mg/Kg ABR-238901 was diluted in PBS and administered by daily i.p. injections for the first 3 days post-MI until the mice recovered and started to drink normally, and thereafter p.o. ad-libitum in meglumine buffer (FIG. 4A). Adequate treatment dosage was ensured by closely monitoring daily fluid intake."}, "[3]": {"test_system": "C57BL/6 mice with coronary artery ligation for 60 minutes followed by reperfusion", "experiment": "Myocardial ischemia (60 minutes)/reperfusion, short-term (3 days) treatment: echocardiography and flow cytometry", "format": "in vivo, mouse", "procedure": "(a) C57BL/6 mice with MI induced by coronary artery ligation for 60 minutes followed by reperfusion received three daily i.p. injections of ABR or PBS, starting at the time of reperfusion and administered on days 0, 1 and 2 post-MI. Cardiac function was assessed by echocardiography the day before surgery and on days 3, 7, 14 and 21 in the Sham (n=10), Sham+ABR (n=10), MI (n=22) and MI+3d ABR (n=13) groups. […] (F) Neutrophil and (G) monocyte counts in the bone marrow were increased 2 days after myocardial ischaemia/reperfusion in the MI+3d ABR group (n=6) compared to the MI group treated with PBS (n=6). (H) Neutrophil, (I) monocyte, and (J) macrophage numbers in the myocardium in the MI and MI+3d ABR groups on Day 2 post-MI. […] The P-values refer to the difference between the MI and the MI+3d ABR groups. The P-values for the repeated measurement experiments refer to the difference between the MI and the MI+3d ABR groups, analysed by 2-way ANOVA with Fisher LSD post-hoc evaluation. Only the significant P-values are shown. Data is presented as mean±SD.\nas §1\nProcedures were carried out as outlined in Example 2. In contrast to permanent ischemia, the coronary artery occlusion was maintained for 60 minutes followed by removal of the ligature, allowing for reperfusion of the ischemic myocardium. Three doses of 30 mg/Kg ABR-238901 diluted in PBS were administered by daily i.p. injections at the time of the reperfusion, and after 24 h and 48 h (FIG. 5A)."}, "[4]": {"conditions": "2 days after ischemia/reperfusion"}}, "data": [{"smiles": "COc1ncc(S(=O)(=O)Nc2cncc(Cl)c2O)cc1Br", "note": "[ABR-238901, 5-bromo-N-(5-chloro-4-hydroxypyridin-3-yl)-6-methoxypyridine-3-sulfonamide]", "values": [{"measurement": "IC50", "setting": "[1]", "result": 2100, "unit": "nM"}, {"measurement": "Cardiac function (left ventricular ejection fraction)", "setting": "[2]; 30 mg/Kg i.p. 3 days then p.o., echocardiography", "result": "progressive deterioration"}, {"measurement": "Size of the myocardial scar", "setting": "[2]; 21 days", "result": "increased"}, {"measurement": "EDV vs controls", "setting": "[2]; day 21", "result": "increased"}, {"measurement": "ESV vs controls", "setting": "[2]; day 21", "result": "increased"}, {"measurement": "Left ventricular EF", "setting": "[3]; 30 mg/Kg i.p. at reperfusion, 24 h, 48 h, echocardiography, day 3", "result": 42, "unit": "%"}, {"measurement": "Left ventricular EF, average", "setting": "[3]; 30 mg/Kg i.p. at reperfusion, 24 h, 48 h, echocardiography, day 7", "result": 45, "unit": "%"}, {"measurement": "Left ventricular EF", "setting": "[3]; 30 mg/Kg i.p. at reperfusion, 24 h, 48 h, echocardiography, day 21", "result": 48, "unit": "%"}, {"measurement": "Numbers of monocytes in the bone marrow", "setting": "[3]; [4]", "result": "increased"}, {"measurement": "Numbers of neutrophils in the bone marrow", "setting": "[3]; [4]", "result": "increased"}, {"measurement": "Average EDV vs MI control", "setting": "[3]; 3 days treatment", "result": "no significant differences"}, {"measurement": "Average ESV vs MI control", "setting": "[3]; 3 days treatment", "result": "no significant differences"}, {"measurement": "Cardiac output, average", "setting": "[3]; 3 days treatment, day 21", "result": 15.7, "unit": "mL/min"}, {"measurement": "Macrophage infiltration in the myocardium", "setting": "[3]; day 2 after ischemia/reperfusion", "result": "decreased"}]}]}
